From US12486300B2, “Mithramycin oxime derivatives having increased selectivity and anti-cancer activity” (University of Kentucky Research Foundation, priority 2018, dated 2025)

Tested on: TC32 Ewing sarcoma cells, expressing EWS-FLI1
Experiment: Growth inhibition assay, TC32 cells
Type: cell-based
Conditions: ratio of GI50 PC3 to TC32
Protocol: Growth inhibition assay to assess cytotoxicity in ETS vs non-ETS expressing cells. Cells were seeded in clear 96-well plates (VWR, Radnor, PA). Seeding densities were optimized for each cell line to support 5 days of linear growth. Following a 24 hours attachment period, cells in duplicate wells were treated with half-log increments of respective compounds (0 nM and 0.3 nM-10 μM). Working stocks were prepared from an initial 10 mM drug stock diluted in either 100% ethanol or dimethyl sulfoxide (DMSO). All wells contained a final concentration of 0.1% (v/v) respective organic solvent. Immediately following treatment, cell viability was measured for vehicle control (Day 0) wells. Cell viability was measured in the remaining wells after 72 hours of incubation with compound or vehicle control (Day 3).
Percent viability, relative to the initial cell seeding concentration, was calculated by ((TreatmentDay3−Vehicle ControlDay0)/(Vehicle ControlDay3−Vehicle ControlDay0))×100. Percent cell viability was plotted as a function of compound concentration (Log [M]) and the data were fit using a 3-parameter non-linear model with fixed Hill slope constant and 4-parameter non-linear model with variable Hill slope constant. The model with the best curve fit was used to estimate the GI50 in GraphPad Prism 7.0 software (GraphPad Software, La Jolla, CA). The 3-parameter equation used was Y=Bottom+(Top−Bottom)/(1+10[…]((X−Log[IC50]))). The 4-parameter equation used was Y=Bottom+(Top−Bottom)/(1+10[…]((Log[IC50]−X)*Hillslope)). Top and Bottom are plateaus in the units of the Y-axis (response). IC50 is the response (Y-axis) halfway between Top and Bottom plateaus.
All compounds were tested at least once in multi-well replicates and each experiment included one a control compound (i.e., MTM) to ensure the stable response of the cell lines. The selectivity index was estimated by determining the ratio of GI50 estimates between ETS fusion negative and ETS fusion positive cell lines.

CON=C(C(O)C(C)O)C(OC)C1Cc2cc3cc(OC4CC(OC5CC(O)C(O)C(C)O5)C(O)C(C)O4)c(C)c(O)c3c(O)c2C(=O)C1OC1CC(OC2CC(OC3CC(C)(O)C(O)C(C)O3)C(O)C(C)O2)C(O)C(C)O1 (centres unmarked) [MTM (1)]
PC:TC32 (cellular selectivity): 1.66

COC(C(=NOCc1ccccc1)C(O)C(C)O)C1Cc2cc3cc(OC4CC(OC5CC(O)C(O)C(C)O5)C(O)C(C)O4)c(C)c(O)c3c(O)c2C(=O)C1OC1CC(OC2CC(OC3CC(C)(O)C(O)C(C)O3)C(O)C(C)O2)C(O)C(C)O1 (centres unmarked) [MTM (2)]
PC:TC32 (cellular selectivity): 1.08

COC(C(=NO)C(O)C(C)O)C1Cc2cc3cc(OC4CC(OC5CC(O)C(O)C(C)O5)C(O)C(C)O4)c(C)c(O)c3c(O)c2C(=O)C1OC1CC(OC2CC(OC3CC(C)(O)C(O)C(C)O3)C(O)C(C)O2)C(O)C(C)O1 (centres unmarked) [MTM (3)]
PC:TC32 (cellular selectivity): 1.86

CCON=C(C(O)C(C)O)C(OC)C1Cc2cc3cc(OC4CC(OC5CC(O)C(O)C(C)O5)C(O)C(C)O4)c(C)c(O)c3c(O)c2C(=O)C1OC1CC(OC2CC(OC3CC(C)(O)C(O)C(C)O3)C(O)C(C)O2)C(O)C(C)O1 (centres unmarked) [MTM (4)]
PC:TC32 (cellular selectivity): 1.15

COC(C(=NOC[Si](C)(C)C)C(O)C(C)O)C1Cc2cc3cc(OC4CC(OC5CC(O)C(O)C(C)O5)C(O)C(C)O4)c(C)c(O)c3c(O)c2C(=O)C1OC1CC(OC2CC(OC3CC(C)(O)C(O)C(C)O3)C(O)C(C)O2)C(O)C(C)O1 (centres unmarked) [MTM (5E)]
PC:TC32 (cellular selectivity): 1.28

COC(C(=NOC[Si](C)(C)C)C(O)C(C)O)C1Cc2cc3cc(OC4CC(OC5CC(O)C(O)C(C)O5)C(O)C(C)O4)c(C)c(O)c3c(O)c2C(=O)C1OC1CC(OC2CC(OC3CC(C)(O)C(O)C(C)O3)C(O)C(C)O2)C(O)C(C)O1 (centres unmarked) [MTM (5Z)]
PC:TC32 (cellular selectivity): 0.68

COC(C(=NOCC(C)C)C(O)C(C)O)C1Cc2cc3cc(OC4CC(OC5CC(O)C(O)C(C)O5)C(O)C(C)O4)c(C)c(O)c3c(O)c2C(=O)C1OC1CC(OC2CC(OC3CC(C)(O)C(O)C(C)O3)C(O)C(C)O2)C(O)C(C)O1 (centres unmarked) [MTM (7E)]
PC:TC32 (cellular selectivity): 1.04

COC(C(=NOCC(C)C)C(O)C(C)O)C1Cc2cc3cc(OC4CC(OC5CC(O)C(O)C(C)O5)C(O)C(C)O4)c(C)c(O)c3c(O)c2C(=O)C1OC1CC(OC2CC(OC3CC(C)(O)C(O)C(C)O3)C(O)C(C)O2)C(O)C(C)O1 (centres unmarked) [MTM (7Z)]
PC:TC32 (cellular selectivity): 1.15

C=CCON=C(C(O)C(C)O)C(OC)C1Cc2cc3cc(OC4CC(OC5CC(O)C(O)C(C)O5)C(O)C(C)O4)c(C)c(O)c3c(O)c2C(=O)C1OC1CC(OC2CC(OC3CC(C)(O)C(O)C(C)O3)C(O)C(C)O2)C(O)C(C)O1 (centres unmarked) [MTM (10)]
PC:TC32 (cellular selectivity): 1.10

COC(C(=NOCc1ccc([N+](=O)[O-])cc1)C(O)C(C)O)C1Cc2cc3cc(OC4CC(OC5CC(O)C(O)C(C)O5)C(O)C(C)O4)c(C)c(O)c3c(O)c2C(=O)C1OC1CC(OC2CC(OC3CC(C)(O)C(O)C(C)O3)C(O)C(C)O2)C(O)C(C)O1 (centres unmarked) [MTM (11)]
PC:TC32 (cellular selectivity): 1.30

COc1ccc(CON=C(C(O)C(C)O)C(OC)C2Cc3cc4cc(OC5CC(OC6CC(O)C(O)C(C)O6)C(O)C(C)O5)c(C)c(O)c4c(O)c3C(=O)C2OC2CC(OC3CC(OC4CC(C)(O)C(O)C(C)O4)C(O)C(C)O3)C(O)C(C)O2)cc1 (centres unmarked) [MTM (14E)]
PC:TC32 (cellular selectivity): 2.05

COc1ccc(CON=C(C(O)C(C)O)C(OC)C2Cc3cc4cc(OC5CC(OC6CC(O)C(O)C(C)O6)C(O)C(C)O5)c(C)c(O)c4c(O)c3C(=O)C2OC2CC(OC3CC(OC4CC(C)(O)C(O)C(C)O4)C(O)C(C)O3)C(O)C(C)O2)cc1 (centres unmarked) [MTM (14Z)]
PC:TC32 (cellular selectivity): 2.91

COC(C(=NOC(C)(C)C)C(O)C(C)O)C1Cc2cc3cc(OC4CC(OC5CC(O)C(O)C(C)O5)C(O)C(C)O4)c(C)c(O)c3c(O)c2C(=O)C1OC1CC(OC2CC(OC3CC(C)(O)C(O)C(C)O3)C(O)C(C)O2)C(O)C(C)O1 (centres unmarked) [MTM (15E)]
PC:TC32 (cellular selectivity): 1.87

COC(C(=NOC(C)(C)C)C(O)C(C)O)C1Cc2cc3cc(OC4CC(OC5CC(O)C(O)C(C)O5)C(O)C(C)O4)c(C)c(O)c3c(O)c2C(=O)C1OC1CC(OC2CC(OC3CC(C)(O)C(O)C(C)O3)C(O)C(C)O2)C(O)C(C)O1 (centres unmarked) [MTM (15Z)]
PC:TC32 (cellular selectivity): 2.25

COC(C(=NOCCOc1ccc(C(F)(F)F)cc1)C(O)C(C)O)C1Cc2cc3cc(OC4CC(OC5CC(O)C(O)C(C)O5)C(O)C(C)O4)c(C)c(O)c3c(O)c2C(=O)C1OC1CC(OC2CC(OC3CC(C)(O)C(O)C(C)O3)C(O)C(C)O2)C(O)C(C)O1 (centres unmarked) [MTM (16)]
PC:TC32 (cellular selectivity): 7.91

C#CCON=C(C(O)C(C)O)C(OC)C1Cc2cc3cc(OC4CC(OC5CC(O)C(O)C(C)O5)C(O)C(C)O4)c(C)c(O)c3c(O)c2C(=O)C1OC1CC(OC2CC(OC3CC(C)(O)C(O)C(C)O3)C(O)C(C)O2)C(O)C(C)O1 (centres unmarked) [MTM (17E)]
PC:TC32 (cellular selectivity): 2.40

C#CCON=C(C(O)C(C)O)C(OC)C1Cc2cc3cc(OC4CC(OC5CC(O)C(O)C(C)O5)C(O)C(C)O4)c(C)c(O)c3c(O)c2C(=O)C1OC1CC(OC2CC(OC3CC(C)(O)C(O)C(C)O3)C(O)C(C)O2)C(O)C(C)O1 (centres unmarked) [MTM (17Z)]
PC:TC32 (cellular selectivity): 1.89

COC(C(=NOCC(=O)NCCc1c[nH]c2ccccc12)C(O)C(C)O)C1Cc2cc3cc(OC4CC(OC5CC(O)C(O)C(C)O5)C(O)C(C)O4)c(C)c(O)c3c(O)c2C(=O)C1OC1CC(OC2CC(OC3CC(C)(O)C(O)C(C)O3)C(O)C(C)O2)C(O)C(C)O1 (centres unmarked) [MTM (18)]
PC:TC32 (cellular selectivity): 6.44

COC(C(=NOCCc1c[nH]c2ccccc12)C(O)C(C)O)C1Cc2cc3cc(OC4CC(OC5CC(O)C(O)C(C)O5)C(O)C(C)O4)c(C)c(O)c3c(O)c2C(=O)C1OC1CC(OC2CC(OC3CC(C)(O)C(O)C(C)O3)C(O)C(C)O2)C(O)C(C)O1 (centres unmarked) [MTM (19)]
PC:TC32 (cellular selectivity): 1.70

COC(C(=NOCCc1c[nH]c2ccccc12)C(O)C(C)O)C1Cc2cc3cc(OC4CC(OC5CC(O)C(O)C(C)O5)C(O)C(C)O4)c(C)c(O)c3c(O)c2C(=O)C1OC1CC(OC2CC(OC3CC(C)(O)C(O)C(C)O3)C(O)C(C)O2)C(O)C(C)O1 (centres unmarked) [MTM (19E)]
PC:TC32 (cellular selectivity): 1.40

COC(C(=NOCCCc1c[nH]c2ccccc12)C(O)C(C)O)C1Cc2cc3cc(OC4CC(OC5CC(O)C(O)C(C)O5)C(O)C(C)O4)c(C)c(O)c3c(O)c2C(=O)C1OC1CC(OC2CC(OC3CC(C)(O)C(O)C(C)O3)C(O)C(C)O2)C(O)C(C)O1 (centres unmarked) [MTM (21)]
PC:TC32 (cellular selectivity): 1.38

COC(C(=NOCCCCc1c[nH]c2ccccc12)C(O)C(C)O)C1Cc2cc3cc(OC4CC(OC5CC(O)C(O)C(C)O5)C(O)C(C)O4)c(C)c(O)c3c(O)c2C(=O)C1OC1CC(OC2CC(OC3CC(C)(O)C(O)C(C)O3)C(O)C(C)O2)C(O)C(C)O1 (centres unmarked) [MTM (22)]
PC:TC32 (cellular selectivity): 1.54

COC(=O)C(Cc1c[nH]c2ccccc12)NC(=O)C(Cc1ccccc1)NC(=O)CON=C(C(O)C(C)O)C(OC)C1Cc2cc3cc(OC4CC(OC5CC(O)C(O)C(C)O5)C(O)C(C)O4)c(C)c(O)c3c(O)c2C(=O)C1OC1CC(OC2CC(OC3CC(C)(O)C(O)C(C)O3)C(O)C(C)O2)C(O)C(C)O1 (centres unmarked) [MTM (23)]
PC:TC32 (cellular selectivity): 7.31

COC(=O)C(Cc1c[nH]c2ccccc12)NC(=O)C(Cc1c[nH]c2ccccc12)NC(=O)CON=C(C(O)C(C)O)C(OC)C1Cc2cc3cc(OC4CC(OC5CC(O)C(O)C(C)O5)C(O)C(C)O4)c(C)c(O)c3c(O)c2C(=O)C1OC1CC(OC2CC(OC3CC(C)(O)C(O)C(C)O3)C(O)C(C)O2)C(O)C(C)O1 (centres unmarked) [MTM (24)]
PC:TC32 (cellular selectivity): 6.9

COC(=O)C(Cc1ccccc1)NC(=O)C(Cc1c[nH]c2ccccc12)NC(=O)CON=C(C(O)C(C)O)C(OC)C1Cc2cc3cc(OC4CC(OC5CC(O)C(O)C(C)O5)C(O)C(C)O4)c(C)c(O)c3c(O)c2C(=O)C1OC1CC(OC2CC(OC3CC(C)(O)C(O)C(C)O3)C(O)C(C)O2)C(O)C(C)O1 (centres unmarked) [MTM (25)]
PC:TC32 (cellular selectivity): 5.98

COC(=O)C(Cc1cn(C)c2ccccc12)NC(=O)CON=C(C(O)C(C)O)C(OC)C1Cc2cc3cc(OC4CC(OC5CC(O)C(O)C(C)O5)C(O)C(C)O4)c(C)c(O)c3c(O)c2C(=O)C1OC1CC(OC2CC(OC3CC(C)(O)C(O)C(C)O3)C(O)C(C)O2)C(O)C(C)O1 (centres unmarked) [MTM (26)]
PC:TC32 (cellular selectivity): 5.64

COC(=O)C(Cc1ccccc1)NC(=O)CON=C(C(O)C(C)O)C(OC)C1Cc2cc3cc(OC4CC(OC5CC(O)C(O)C(C)O5)C(O)C(C)O4)c(C)c(O)c3c(O)c2C(=O)C1OC1CC(OC2CC(OC3CC(C)(O)C(O)C(C)O3)C(O)C(C)O2)C(O)C(C)O1 (centres unmarked) [MTM (27)]
PC:TC32 (cellular selectivity): 7.06

COC(=O)C(Cc1ccccc1)NC(=O)C(Cc1ccccc1)NC(=O)CON=C(C(O)C(C)O)C(OC)C1Cc2cc3cc(OC4CC(OC5CC(O)C(O)C(C)O5)C(O)C(C)O4)c(C)c(O)c3c(O)c2C(=O)C1OC1CC(OC2CC(OC3CC(C)(O)C(O)C(C)O3)C(O)C(C)O2)C(O)C(C)O1 (centres unmarked) [MTM (28)]
PC:TC32 (cellular selectivity): 11.68

COC(C(=NOCC(=O)NCCc1ccccc1)C(O)C(C)O)C1Cc2cc3cc(OC4CC(OC5CC(O)C(O)C(C)O5)C(O)C(C)O4)c(C)c(O)c3c(O)c2C(=O)C1OC1CC(OC2CC(OC3CC(C)(O)C(O)C(C)O3)C(O)C(C)O2)C(O)C(C)O1 (centres unmarked) [MTM (29)]
PC:TC32 (cellular selectivity): 1.58
